Results taken from paper PMC5983026, “Intraring allostery controls the function and assembly of a hetero-oligomeric class II chaperonin” (The FASEB Journal, 2018).

T1: Ta RhaD (rhamnose dehydrogenase) (Thermoplasma acidophilum, UniProt Q9HK58)
T1 sequence (Q9HK58 1-254): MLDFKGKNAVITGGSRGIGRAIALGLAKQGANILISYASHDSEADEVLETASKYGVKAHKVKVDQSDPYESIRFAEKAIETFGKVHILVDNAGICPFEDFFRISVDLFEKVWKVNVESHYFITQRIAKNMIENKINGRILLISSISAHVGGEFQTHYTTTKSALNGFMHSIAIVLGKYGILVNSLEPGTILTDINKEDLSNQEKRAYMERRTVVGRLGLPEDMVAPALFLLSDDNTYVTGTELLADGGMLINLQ

B1: Thermoplasma acidophilum thermosome α subunit D94E, with intraloop His6-tag (natural protein)
chain: MMTGQVPILVLKEGTQREQGKNAQRNNIEAAKAIADAVRTTLGPKGMDKMLVDSIGDIIISNDGATILKEMDVEHPTAKMIVEVSKAQDTAVGEGTTTAVVLSGELLKQAETLLDQGVHPTVISNGYRLAVNEARKIIDEIAEKSTDDATLRKIALTALSGKNTGLSNDFLADLVVKAVNAVAEVRDGKTIVDTANIKVDKKNGGSVNDTQFISGIVIDKEKVHSKMPDVVKNAKIALIDSALEIKKTEIEAKVQISDPSKIQDFLNQETNTFKQMVEKIKKSGANVVLCQKGIDDVAQHYLAKEGIYAVRRVKKSDMEKLAKATGAKIVTDLDDLTPSVLGEAETVEERKIGDDRMTFVMGCKNPKAVSILIRGGTDHVVSEVERALNDAIRVVAITKEDGKFLWGGGAVEAELAMRLAKYANSVGGREQLAIEAFAKALEIIPRTLAENAGIDPINTLIKLKAEHEKGRISVGVDLDNNGVGDMKAKGVVDPLRVKTHALESAVEVATMILRIDDVIASKKSTPPSGQGGQGQGMPGGGMPEY
notes: Thermoplasma acidophilum thermosome α subunit, NCBI CAC12109; site-directed mutant of construct aK144HTTherm; also called Asp94α to a glutamate residue; not shown: His6, internal (intraloop), kept

Assays:
[1] = target: T1, Ta RhaD (rhamnose dehydrogenase); assay: dehydrogenase activity, NADPH absorbance at […] nm; type: biochemical; details: NADP+ co-substrate, 55 °C; read-out of refolding assay
[2] = target: the molecule itself; assay: SEC + native gel or EMSA; α (intraloop His6) and β co-expressed in E. coli; complexes purified to homogeneity as in ref. 29; integrity by Superose 6 Increase SEC (main peak ≅950 kDa) and native-PAGE 3–12% (≅1 MDa); subunit composition by Tris-Acetate SDS-PAGE (7%) of the purified proteins

Molecule	dehydrogenase activity, NADPH absorbance at 340 nm [1]	stoichiometry N [2]
C[C@@H]1OC(O)[C@H](O)[C@H](O)[C@H]1O (stereo partly drawn) [L-rhamnose]	RhaD catalyzes the NADP^+-dependent oxidation of L-rhamnose	–
B1	–	16
